Laboratory results from patent publication EP3057949B1, “SECONDARY ALCOHOL QUINOLINYL MODULATORS OF ROR GAMMA T” (Janssen Pharmaceutica NV, priority 2013, dated 2015).

How the values were obtained:
[1] = tested on: IL-17 production by CD4 T cells; experiment: Human Th17 Assay (IL-17 production by CD4 T cells); assay type: cell-based; conditions: IL-17 in supernatant after 3 days, Th17 differentiation conditions
Description: The human Thl7 assay tests the effect of RORyt modulatory compounds on IL-17 production by CD4 T cells under conditions which favor Th17 differentiation.
Total CD4^+ T cells were isolated from the peripheral blood mononuclear cells (PBMC) of healthy donors using a CD4^+ T cell isolation kit II, following the manufacturer's instructions (Miltenyi Biotec). Cells were resuspended in a medium of RPMI-1640 supplemented with 10% fetal bovine serum, penicillin, streptomycin, […], and β-mercaptoethanol and were added to 96-well plates at 1.5x10^5 per 100 µL per well. 50 µL of compound at titrated concentrations in DMSO were added into each well at final DMSO concentration at 0.2%. Cells were incubated for 1 hour, then 50 µL of Th17 cell differentiation medium was added to each well. The final concentrations of antibodies and cytokines (R&D Systems) in differentiation medium were: 3x10^6/mL anti-CD3/CD28 beads (prepared using human T cell activation/expansion kit, Miltenyi Biotec), 10 µg/mL anti-IL4, 10 µg/mL anti-IFNγ, 10 ng/mL IL1β, 10 ng/mL IL23, 50 ng/mL IL6, 3 ng/mL TGFβ and 20 U/mL IL2. Cells were cultured at 37 °C and 5% CO2 for 3 days. Supernatants were collected and the accumulated IL-17 in culture was measured by using MULTI-SPOT® Cytokine Plate following manufacture's instruction (Meso Scale Discovery). The plate was read using Sector Imager 6000, and IL-17 concentration was extrapolated from the standard curve. The IC50s were determined by GraphPad.

[2] = target: T1, human RORγt LBD (Homo sapiens, UniProt P51449); experiment: RORγt (LBD) Reporter Assay (GAL4 luciferase, HEK293T cells); assay type: cell-based; conditions: for inhibition at 6 µM: HEK-293T; for inhibition at 6 µM / RORγt (LBD) Reporter Assay, % inhibition @ 6 µM: 6 µM compound; for IC50: compounds for 24 hours
T1 construct: expressed in transfected cells; host or cells: HEK293T
T1 sequence (P51449 258-518): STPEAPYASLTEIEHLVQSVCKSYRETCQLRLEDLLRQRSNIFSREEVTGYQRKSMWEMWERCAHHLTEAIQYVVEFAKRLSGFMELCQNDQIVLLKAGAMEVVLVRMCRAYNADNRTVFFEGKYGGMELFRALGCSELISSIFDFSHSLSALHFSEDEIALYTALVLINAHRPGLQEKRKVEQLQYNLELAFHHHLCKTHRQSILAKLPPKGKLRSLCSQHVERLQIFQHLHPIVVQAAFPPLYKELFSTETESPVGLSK
Procedure: Compounds were assessed for RORgt functional modulation using either the RORgt ligand binding domain (LBD) reporter assay, or the RORgt full-length (FL) reporter assay.
A reporter assay was used to test functional activity of RORγt modulatory compounds on transcriptional activation driven by the RORγt LBD. Cells used in the assay were co-transfected with two constructs. The first construct, pBIND-RORγt LBD, contained the wild type human RORγt LBD fused to the DNA binding domain of the GAL4 protein. The second construct, pGL4.31 (Promega Cat no. C935A), contained multiple GAL4 responsive DNA elements upstream of firefly luciferase. […] The mutant construct was called pBIND-RORγt-AF2.
The pBIND vector contains the GAL4 DNA Binding Domain (GAL4 DBD) and the renilla luciferase gene under control of the SV40 promoter. Renilla luciferase expression serves as a control for transfection efficiency and cell viability.
The reporter assay was performed by transiently transfecting HEK293T cells with 5 µg of pBIND-RORγt LBD or pBIND-RORγt LBD-AF2 and 5 µg pGL4.31 (Promega Cat no. C935A) using Fugene 6 (Invitrogen Cat no. E2691) at a 1:6 ratio of DNA: Fugene 6 in a T-75 flask in which cells were at least 80% confluent. Twenty four hours after bulk transfection, cells were plated into 96-well plates at 50,000 cells/well in phenol-red free DMEM containing 5% Lipid Reduced FCS and Pen/Strep. Six hours after plating, cells were treated with compounds for 24 hours. Media was removed and cells were lysed with 50 µL 1x Glo Lysis Buffer (Promega). Dual Glo Luciferase Reagent (50 µL/well) was then added and firefly luciferase luminescence was read on an Envision after a ten minute incubation. Finally, Stop and Glo reagent (50 µL/well) was added and renilla luciferase luminescence was read on an Envision after a ten minute incubation. To calculate the effect of compounds on RORγt activity, the ratio of firefly to renilla luciferase was determined and plotted against compound concentration. Agonist compounds increase RORγt-driven luciferase expression, and antagonist or inverse agonist compounds decrease luciferase expression.

[3] = target: T2, human RORγt ligand binding domain (RORγt LBD) (Homo sapiens, UniProt P51449); experiment: ThermoFluor® Assay (RORγt thermal shift binding); conditions: 0.065 mg/mL RORγt, 60 µM 1,8-ANS, pH 7.0; estimated from concentration response curves
T2 construct: His-tag (N); TurboTEV protease cleavage site (ENLYFQG) (N); made in house; host or cells: E. coli (pHIS1, modified pET vector)
T2 sequence (P51449 258-518): T1 sequence (P51449 258-518)
Procedure: This approach is applicable to a wide variety of systems, and rigorous in theoretical interpretation through quantitation of equilibrium binding constants (KD).
The shift in the melting point described as a ΔTm is proportional to the concentration and affinity of the ligand. The compound potency may be compared as a rank order of either ATm values at a single compound concentration or in terms of KD values, estimated from concentration response curves.
ThermoFluor® experiments were carried out using instruments owned by Janssen Research and Discovery, L.L.C. through its acquisition of 3-Dimensional Pharmaceuticals, Inc. 1,8-ANS (Invitrogen) was used as a fluorescent dye. Protein and compound solutions are dispensed into black 384-well polypropylene PCR microplates (Abgene) and overlayed with silicone oil (1 µL, Fluka, type DC 200) to prevent evaporation.
Bar-coded assay plates are robotically loaded onto a thermostatically controlled PCR-type thermal block and then heated at a typical ramp-rate of 1 °C/minute for all experiments. Fluorescence was measured by continuous illumination with UV light (Hamamatsu LC6) supplied via fiber optic and filtered through a band-pass filter (380-400 nm; >6 OD cutoff). Fluorescence emission of the entire 384-well plate was detected by measuring light intensity using a CCD camera (Sensys, Roper Scientific) filtered to detect 500 ± 25 nm, resulting in simultaneous and independent readings of all 384 wells. Images were collected at each temperature, and the sum of the pixel intensity in a given area of the assay plate was recorded versus temperature. Reference wells contained RORyt without compounds, and the assay conditions were as follows: • 0.065 mg/mL RORγt • 60 µM 1,8-ANS • 100 mM Hepes, pH 7.0 • 10 mM NaCl • 2.5 mM GSH • 0.002% Tween-20
Project compounds were arranged in a pre-dosed mother plate (Greiner Bio-one) wherein compounds are serially diluted in 100% DMSO by 1:2 from a high concentration of 10 mM over 12 columns within a series (column 12 is a reference well containing DMSO, no compound). The compounds were robotically dispensed directly into assay plates (1x = 46 nL) using a Hummingbird capillary liquid handling instrument (Digilab). Following compound dispense, protein and dye in buffer was added to achieve the final assay volume of 3 µL, followed by 1 µL of silicone oil.

Row | SMILES | IC50 [1] [nM] | inhibition at 6 µM [2] [%] | IC50 [2] [nM] | Kd [3] [nM] | RORγt (LBD) Reporter Assay, % inhibition @ 6 µM [2] [%] | IC50 ([1]; Homo sapiens, CD4+ T, 72 h) [nM]
1 | COc1nc2ccc(C(O)c3cnnn3C)cc2c(Cl)c1Cc1ccc(-n2cccn2)cc1 (single isomer, unassigned) [Example 5b, (3-(4-(1H-Pyrazol-1-yl)benzyl)-4-chloro-2-methoxyquinolin-6-yl)(1-methyl-1H-1,2,3-triazol-5-yl)methanol] | 1500 | – | – | – | – | –
2 | Cc1ccc(C(O)c2ccc3nc(N4CCC4)c(Cc4ccc(C(F)(F)F)cc4)c(Cl)c3c2)c(C)n1 (single isomer, unassigned) [Example 23c, {2-Azetidin-1-yl-4-chloro-3-[4-(trifluoromethyl)benzyl]quinolin-6-yl}(2,6-dimethylpyridin-3-yl)methanol] | 480 | – | 280 | 200 | 99 | –
3 | COc1nc2ccc(C(O)c3cnnn3C)cc2c(Cl)c1Cc1ccc(C(F)(F)F)cc1 (single isomer, unassigned) [Example 17c, (4-Chloro-2-methoxy-3-(4-(trifluoromethyl)benzyl)quinolin-6-yl)(1-methyl-1H-1,2,3-triazol-5-yl)methanol] | 140 | – | 210 | 130 | 97 | –
4 | COc1nc2ccc(C(O)c3cnnn3C)cc2c(Cl)c1Cc1ccc(-n2cccn2)cc1 (single isomer, unassigned) [Example 5c, (3-(4-(1H-Pyrazol-1-yl)benzyl)-4-chloro-2-methoxyquinolin-6-yl)(1-methyl-1H-1,2,3-triazol-5-yl)methanol] | 610 | – | – | – | – | –
5 | Cc1ccc(C(O)c2ccc3nc(N4CCC4)c(Cc4ccc(C(F)(F)F)cc4)c(Cl)c3c2)c(C)n1 (single isomer, unassigned) [Example 23b, {2-Azetidin-1-yl-4-chloro-3-[4-(trifluoromethyl)benzyl]quinolin-6-yl}(2,6-dimethylpyridin-3-yl)methanol] | – | 98 | 220 | 110 | – | 380

Now from value to compound:

Row | IC50 [1] [nM] | inhibition at 6 µM [2] [%] | IC50 [2] [nM] | Kd [3] [nM] | RORγt (LBD) Reporter Assay, % inhibition @ 6 µM [2] [%] | IC50 ([1]; Homo sapiens, CD4+ T, 72 h) [nM] | SMILES
6 | 440 | 96 | 240 | 81 | – | – | COc1nc2ccc(C(O)c3cnnn3C)cc2c(Cl)c1Cc1ccc(C(F)(F)F)cc1 (single isomer, unassigned) [Example 17b, (4-Chloro-2-methoxy-3-(4-(trifluoromethyl)benzyl)quinolin-6-yl)(1-methyl-1H-1,2,3-triazol-5-yl)methanol]
7 | – | – | 450 | 190 | 92 | 2600 | Cc1ncc(C(O)c2ccc3nc(N4CCC4)c(Cc4ccc(-n5cccn5)cc4)c(Cl)c3c2)n1C (single isomer, unassigned) [Example 21c, {2-Azetidin-1-yl-4-chloro-3-[4-(1H-pyrazol-1-yl)benzyl]quinolin-6-yl}(1,2-dimethyl-1H-imidazol-5-yl)methanol]
8 | 2.9 | – | ~400 | 43 | 96 | – | Cc1ncc(C(O)c2ccc3nc(N4CCC4)c(Cc4ccc(C(F)(F)F)cc4)c(Cl)c3c2)n1C (single isomer, unassigned) [Example 22c, {2-Azetidin-1-yl-4-chloro-3-[4-(trifluoromethyl)benzyl]quinolin-6-yl}(1,2-dimethyl-1H-imidazol-5-yl)methanol]
9 | 100 | – | 220 | 100 | 98 | – | COc1nc2ccc(C(O)c3ccc(C)nc3C)cc2c(Cl)c1Cc1ccc(C(F)(F)F)cc1 (single isomer, unassigned) [Example 14c, (4-Chloro-2-methoxy-3-(4-(trifluoromethyl)benzyl)quinolin-6-yl)(2,6-dimethylpyridin-3-yl)methanol]
10 | – | 97 | 120 | 130 | – | 170 | COc1nc2ccc(C(O)c3ccc(C)nc3C)cc2c(Cl)c1Cc1ccc(C(F)(F)F)cc1 (single isomer, unassigned) [Example 14b, (4-Chloro-2-methoxy-3-(4-(trifluoromethyl)benzyl)quinolin-6-yl)(2,6-dimethylpyridin-3-yl)methanol]
11 | – | – | 320 | 260 | 96 | 650 | COc1nc2ccc(C(O)c3cncn3C)cc2c(Cl)c1Cc1ccc(C(F)(F)F)cc1 (single isomer, unassigned) [Example 18c, (4-Chloro-2-methoxy-3-(4-(trifluoromethyl)benzyl)quinolin-6-yl)(1-methyl-1H-imidazol-5-yl)methanol]
12 | 9.4 | 95 | 240 | 55 | – | – | Cc1ncc(C(O)c2ccc3nc(N4CCC4)c(Cc4ccc(C(F)(F)F)cc4)c(Cl)c3c2)n1C (single isomer, unassigned) [Example 22b, {2-Azetidin-1-yl-4-chloro-3-[4-(trifluoromethyl)benzyl]quinolin-6-yl}(1,2-dimethyl-1H-imidazol-5-yl)methanol]
